Usually IC50 stands for the concentration that gives 50% inhibition.

Structures are written as SMILES.

One test deals with LU-135. Put plainly: cells. It is filed as functional, cell-based, Homo sapiens. To be noted: Homo sapiens, LU-135.
The subject of the next test is TGBC11TKB. Put plainly: cells. The class given is functional, cell-based, Homo sapiens. The following applies: Homo sapiens, TGBC11TKB.
The next test relates to NBsusSR. Put plainly: cells. The class given is functional, cell-based, Homo sapiens. The following applies: Homo sapiens, NBsusSR.
A further test has as its system CHP-134. Put plainly: SANGER: Inhibition of human CHP-134 cell growth in a cell viability assay. The class given is functional, cell-based.
The subject of another test is ECC10. Put plainly: cells. It is filed as functional, cell-based, Homo sapiens. The following applies: Homo sapiens, ECC10.
Another test has as its system NCI-H1666. Put plainly: cells. It is filed as functional, cell-based, Homo sapiens. The following applies: Homo sapiens, NCI-H1666.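 Note: growth inhibition of the cell line, read out with a cell viability assay.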
For the next test, the system named is EW-12. Put plainly: SANGER: Inhibition of human EW-12 cell growth in a cell viability assay. The class given is functional, cell-based.
A further test has as its system ECC12. Put plainly: cells. The class given is functional, cell-based. The following applies: Homo sapiens.
A further test concerns NCI-H128. Put plainly: SANGER: Inhibition of human NCI-H128 cell growth in a cell viability assay. It is filed as functional, cell-based.
Another test deals with NCI-H2107. Put plainly: SANGER: Inhibition of human NCI-H2107 cell growth in a cell viability assay. It is filed as functional, cell-based.
Another test relates to NCI-H378. Put plainly: SANGER: Inhibition of human NCI-H378 cell growth in a cell viability assay. The class given is functional, cell-based.
The test system of the next test is TC-YIK. Put plainly: SANGER: Inhibition of human TC-YIK cell growth in a cell viability assay. It is filed as functional, cell-based.
The subject of a further test is C-4-II. Put plainly: SANGER: Inhibition of human C-4-II cell growth in a cell viability assay. To be noted: Homo sapiens, C-4-II. The class given is functional, cell-based.
The next test relates to NCI-H838. Put plainly: cells. The class given is functional, cell-based, Homo sapiens. To be noted: Homo sapiens, NCI-H838.
The subject of the next test is TT. Put plainly: cells. The class given is functional, cell-based, Homo sapiens. The following applies: Homo sapiens, TT.
Another test relates to DMS-53. Put plainly: cells. It is filed as functional, cell-based, Homo sapiens. The following applies: Homo sapiens, DMS-53.
The next test has as its system Calu-1. Put plainly: SANGER: Inhibition of human Calu-1 cell growth in a cell viability assay. It is filed as functional, cell-based. To be noted: Homo sapiens, Calu-1.
The next test has as its system EW-7. Put plainly: SANGER: Inhibition of human EW-7 cell growth in a cell viability assay. It is filed as functional, cell-based. The following applies: Homo sapiens, EW-7.
In the next test the test system is SNG-M. Put plainly: cells. To be noted: Homo sapiens, SNG-M. The class given is functional, cell-based, Homo sapiens.
Another test concerns MDA-MB-468. Put plainly: cells. It is filed as functional, cell-based, Homo sapiens. To be noted: Homo sapiens, MDA-MB-468.
A further test relates to Caov-3 cell line. Put plainly: cells. It is filed as functional, cell-based, Homo sapiens. The following applies: Homo sapiens, Caov-3.
For the next test, the system named is EFE-184. Put plainly: cells. The class given is functional, cell-based, Homo sapiens. The following applies: Homo sapiens, EFE-184.
In a further test the test system is MES-SA. Put plainly: cells. It is filed as functional, cell-based, Homo sapiens. To be noted: Homo sapiens, MES-SA.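 Note: growth inhibition of human MES-SA cells, read out with a cell viability assay.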
In a further test the test system is DV-90. Put plainly: cells. It is filed as functional, cell-based, Homo sapiens. The following applies: Homo sapiens, DV-90.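 Note: Read-out is a viability assay, with IC50 reflecting the drop in DV-90 cell growth.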
The test system of another test is NCI-H1734. Put plainly: cells. It is filed as functional, cell-based, Homo sapiens. The following applies: Homo sapiens, NCI-H1734.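 Note: growth inhibition of human NCI-H1734 cells, read out with a cell viability assay.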
The subject of a further test is Caov-4. Put plainly: cells. It is filed as functional, cell-based. The following applies: Homo sapiens.
A further test has as its system SK-MEL-5. Put plainly: SANGER: Inhibition of human SK-MEL-5 cell growth in a cell viability assay. The class given is functional, cell-based.
In a further test the test system is SK-MG-1. Put plainly: SANGER: Inhibition of human SK-MG-1 cell growth in a cell viability assay. The class given is functional, cell-based.

Description for Caov-3 cell line: SANGER: Inhibition of human Caov-3 cell growth in a cell viability assay.
Description for Caov-4: SANGER: Inhibition of human Caov-4 cell growth in a cell viability assay.
Description for DMS-53: SANGER: Inhibition of human DMS-53 cell growth in a cell viability assay.
Description for DV-90: SANGER: Inhibition of human DV-90 cell growth in a cell viability assay.
Description for ECC10: SANGER: Inhibition of human ECC10 cell growth in a cell viability assay.
Description for ECC12: SANGER: Inhibition of human ECC12 cell growth in a cell viability assay.
Description for EFE-184: SANGER: Inhibition of human EFE-184 cell growth in a cell viability assay.
Description for LU-135: SANGER: Inhibition of human LU-135 cell growth in a cell viability assay.
Description for MDA-MB-468: SANGER: Inhibition of human MDA-MB-468 cell growth in a cell viability assay.
Description for MES-SA: SANGER: Inhibition of human MES-SA cell growth in a cell viability assay.
Description for NBsusSR: SANGER: Inhibition of human NBsusSR cell growth in a cell viability assay.
Description for NCI-H1666: SANGER: Inhibition of human NCI-H1666 cell growth in a cell viability assay.
Description for NCI-H1734: SANGER: Inhibition of human NCI-H1734 cell growth in a cell viability assay.
Description for NCI-H838: SANGER: Inhibition of human NCI-H838 cell growth in a cell viability assay.
Description for SNG-M: SANGER: Inhibition of human SNG-M cell growth in a cell viability assay.
Description for TGBC11TKB: SANGER: Inhibition of human TGBC11TKB cell growth in a cell viability assay.
Description for TT: SANGER: Inhibition of human TT cell growth in a cell viability assay.

`CCN(CC)CCCCNc1ncc2cc(-c3cc(OC)cc(OC)c3)c(NC(=O)NC(C)(C)C)nc2n1` [PD-173074]: the half-inhibitory concentration (IC50) with LU-135 was above 2000 nM; in the test on TGBC11TKB it was above 2000 nM; with NBsusSR, above 2000 nM; with CHP-134, above 2000 nM; in the test with ECC10 it was 339 nM; with NCI-H1666, above 2000 nM.
Turning to `COc1cc2c(Nc3ccc(NC(=O)c4ccccc4)cc3)ncnc2cc1OCCCN1CCOCC1`, the IC50 in the test with LU-135 was 2660 nM; in the test on TGBC11TKB, above 4000 nM; in the test with NBsusSR it was 914 nM; with CHP-134 it was 1230 nM; with ECC10, 1630 nM; with NCI-H1666, above 4000 nM.
As to `COc1cc(N2CCN(C)CC2)ccc1Nc1ncc2c(n1)N(C)c1ccccc1C(=O)N2C`, the 50% inhibitory concentration (IC50) with EW-12, in the test on ECC12, in the test with NCI-H128 and in the test with NCI-H2107 was above 8000 nM in each case.
For the compound `CC[C@H](CO)Nc1nc(NCc2ccccc2)c2ncn(C(C)C)c2n1` [SELICICLIB], the 50% inhibitory concentration (IC50) in the test on EW-12, in the test on ECC12, with NCI-H128 and in the test on NCI-H2107 was above 16000 nM in each case.
`COc1cc2ncn(-c3cc(OCc4ccccc4S(C)(=O)=O)c(C#N)s3)c2cc1OC` [GSK-319347A]: the half-maximal inhibitory concentration (IC50) in the test with NCI-H378, in the test with EW-12, in the test on ECC12, in the test on NCI-H128 and in the test on TC-YIK was above 5000 nM throughout.
As for `CC(C)CCN1c2nc(Nc3cc(F)c(O)c(F)c3)ncc2N(C)C(=O)C1C` (stereo not given), the IC50 was above 5000 nM in the test with LU-135; above 5000 nM in the test on TGBC11TKB; 1830 nM in the test with NBsusSR; 3490 nM in the test with CHP-134; 701 nM with ECC10; above 5000 nM in the test on NCI-H1666.
In the case of `Oc1ccc2ccccc2c1SSc1c(O)ccc2ccccc12`, the IC50 with C-4-II, in the test on NCI-H838, with TT, with DMS-53, in the test with Calu-1 and in the test on EW-7 was above 32000 nM each time. The 50% inhibitory concentration (IC50) is above 32000 nM in the test on SNG-M; above 32000 nM with MDA-MB-468; above 32000 nM in the test with Caov-3 cell line; above 32000 nM with EFE-184; 23900 nM with MES-SA; above 32000 nM in the test with DV-90. In the test on NCI-H1734, the IC50 was above 32000 nM.
As for `N#Cc1c(O)c2c(-c3ccc(-c4ccccc4O)cc3)csc2[nH]c1=O`, the IC50 in the test on C-4-II, in the test with NCI-H838, in the test on TT, with DMS-53, in the test on Calu-1 and with EW-7 was above 1020 nM in each case. Further, the IC50 in the test on SNG-M, in the test on ECC12, in the test on MDA-MB-468, in the test on Caov-3 cell line, in the test with EFE-184 and in the test with MES-SA was above 1020 nM each time. The half-maximal inhibitory concentration (IC50) with DV-90, in the test on Caov-4 and in the test on NCI-H1734 was above 1020 nM each time.
On to `CC1(C)CNc2cc(NC(=O)c3cccnc3NCc3ccncc3)ccc21` [MOTESANIB], for which the IC50 with LU-135, in the test on TGBC11TKB, with NBsusSR, in the test on CHP-134, in the test with ECC10 and with NCI-H1666 was above 2000 nM each time.
As to `Cn1cnc2c(F)c(Nc3ccc(Br)cc3Cl)c(C(=O)NOCCO)cc21` [SELUMETINIB], the 50% inhibitory concentration (IC50) in the test on LU-135, with TGBC11TKB, in the test on NBsusSR, in the test with CHP-134 and in the test with ECC10 was above 4000 nM each time.
Regarding `CC(C)c1ccccc1Cc1cc(C(=O)Nc2ccc(S(=O)(=O)c3ccccc3C(C)(C)C)cc2)c(O)c(O)c1O`, the IC50 in the test on SK-MEL-5 came to 69.2 nM; with DMS-53, 1320 nM; in the test with EW-7, 167 nM; in the test with MES-SA, 1110 nM; in the test on SK-MG-1 it was 2580 nM; in the test with NCI-H1666 it was 378 nM.
For `C#Cc1cccc(Nc2ncnc3cc(OCCOC)c(OCCOC)cc23)c1` [ERLOTINIB], the IC50 was above 2000 nM with EW-12, 80.5 nM in the test on ECC12, above 2000 nM with NCI-H128 and above 2000 nM with NCI-H2107.

Source of the values: ChEMBL document CHEMBL1201861, “Genomics of Drug Sensitity in Cancer screening data, Wellcome Trust Sanger Institute”.
